Square brackets hold non-standard residues; d marks the D form. dDab = NCC[C@@H](N)C(=O)O; Orn = NCCC[C@H](N)C(=O)O; Dab = NCC[C@H](N)C(=O)O

Assay type in all cases: in vivo
Experiment [1] relates to Pseudomonas aeruginosa clinical isolate PA9349. The experiment is described as follows: Murine pneumonia model, compound 1 alone (Reference 2). The following applies: for mean CFU level compared to the vehicle group: lungs. As to the method: Efficacy in Murine Pneumonia Model Against Pseudomonas aeruginosa PA9349 and Estimation of ED50
The efficacy and ED50 of the compound of formula (I) (“compound 1”) was determined against Pseudomonas aeruginosa clinical isolate PA9349 in a pneumonia model in mice. Colony counts in the lungs were determined at 18-20 hours post treatment.
Fresh overnight colonies of PA9349 from a 5% Horse Blood Agar plate were suspended in 0.9% sterile saline to approximately 10^8 CFU/ml and further diluted to approximately 5×10^6 CFU/ml. Female mice (DBA/2, outbred, 18-22 g, Charles River) were anesthetized with 0.1 ml of Zoletil (tiletamine+zolazepam) and inoculated via the nose with a pipette with 0.05 ml of the bacteria suspension containing approximately 5×10^5 CFU. 4 hours after inoculation, the mice were treated orally with 45 μl neurophen (20 mg ibuprofen/ml corresponding to approximately 30 mg/kg) as pain relief.
One vial containing 10 mg of active compound 1 was dissolved in 5 ml 0.9% sterile saline to a concentration of 2 mg/ml and was further 2-fold diluted with saline to 1, 0.5, 0.25, 0.125 and 0.06 mg/ml. The mice were treated subcutaneously with 0.2 ml in the neck region with a single dose at 4 hours post infection with a dose calculation based on a mean animal weight of 20 g. As positive control colistin was used in the same manner with a fixed dose of 40 mg/kg.
(§1) Colony counts were determined post inoculation at 4 hours (untreated mice) and 24 hours (treated and vehicle-only treated mice). Immediately after the mice were sacrificed, the lungs were collected and frozen at −20° C. After thawing, the organs were homogenized in 1 ml 0.9% saline. Each sample was then 10-fold diluted in saline and 20 μl spots were applied on blood agar plates. All agar plates were incubated 18-48 hours at 35° C. in ambient air.
The CFU/ml in the inoculum was determined to 7.29 log10 CFU/ml corresponding to 5.98 log10 CFU/mouse.
At 4 hours after infection the mean log10 CFU/lung was 3.47 and the CFU level increased to 4.92 at […] post inoculation in the vehicle-only group.

For experiment [2], the system named is Pseudomonas aeruginosa clinical isolate PAX11045. The experiment is described as follows: Murine pneumonia model, compound 1 in combination with azithromycin (Example 2). As to the method:
The efficacy and ED50 of the compound of formula (I) (“compound 1”) in combination with azithromycin was determined against Pseudomonas aeruginosa clinical isolate PAX11045 in a pneumonia model in mice. Colony counts in lung were determined at 20 hours post treatment.
Fresh overnight colonies of PAX11045 from a 5% Horse Blood Agar plate were suspended in 0.9% sterile saline to approximately 10^8 CFU/ml and further diluted to approximately 5×10^7 CFU/ml. Female mice (DBA/2, outbred, 17-23 g, Charles River) were anesthetized with 0.1 ml of Zoletil and inoculated via the nose with a pipette with 0.05 ml of the bacteria suspension containing approximately 10^6 CFU. 4 hours after inoculation, the mice were treated orally with 45 μl neurophen (20 mg ibuprofen/ml corresponding to approximately 30 mg/kg) as pain relief.
480 mg of azithromycin (Zitromax™, Pfizer) were dissolved in 4.8 ml 0.9% sterile saline to a concentration of 100 mg/ml and further diluted with saline to 5 mg/ml. The mice were treated subcutaneously with 0.2 ml in the neck region with a single dose at 3 hours post infection corresponding to 50 mg/kg on the basis of a mean animal weight of 20 g.
The mice were treated subcutaneously with 0.2 ml in the neck region with a single dose at 4 hours post infection with a dose calculation based on a mean animal weight of 20 g.
Colony counts were determined post inoculation at 4 hours (untreated mice) and 24 hours (treated and vehicle-only treated mice). Immediately after the mice were sacrificed, the lungs were collected and frozen at −20° C. After thawing, the organs were homogenized in 1 ml 0.9% saline. Each sample was then 10 fold diluted in saline and 20 μl spots were applied on blood agar plates. All agar plates were incubated 18-24 hours at 35° C. in ambient air.

For experiment [3], the system named is Pseudomonas aeruginosa clinical isolate PA18298. Put plainly: Murine pneumonia model, compound 1 alone (Reference 3). The protocol: Efficacy in Murine Pneumonia Model Against Pseudomonas aeruginosa PA18298 and Estimation of ED50
The efficacy and ED50 of the compound of formula (I) (“compound 1”) was determined against Pseudomonas aeruginosa clinical isolate PA18298 in a pneumonia model in mice. Colony counts in the lungs were determined at 18-20 hours post treatment.
Fresh overnight colonies of PA18298 from a 5% Horse Blood Agar plate were suspended in 0.9% sterile saline to approximately 10^8 CFU/ml and further diluted to approximately 4×10^7 CFU/ml. Female mice (DBA/2, outbred, 18-22 g, Charles River) were anesthetized with 0.1 ml of Zoletil (tiletamine+zolazepam) and inoculated via the nose with a pipette with 0.05 ml of the bacteria suspension containing approximately 1×10^6 CFU. 4 hours after inoculation, the mice were treated orally with 45 μl neurophen (20 mg ibuprofen/ml corresponding to approximately 30 mg/kg) as pain relief.
One vial containing 10 mg of active compound 1 was dissolved in 2 ml 0.9% sterile saline to a concentration of 5 mg/ml and was further diluted with saline to 2, 1, 0.75, 0.55, 0.275 and 0.137 mg/ml. The mice were treated subcutaneously with 0.2 ml in the neck region with a single dose at 4 hours post infection with a dose calculation based on a mean animal weight of 20 g. As positive control colistin was used in the same manner with a fixed dose of 20 mg/kg.
as §1
The CFU/ml in the inoculum was determined to 7.49 log10 CFU/ml corresponding to 6.20 log10 CFU/mouse.
At 4 hours after infection the mean log10 CFU/lung was 5.05 and the CFU level declined to 2.62 at 24 hours post inoculation in the vehicle-only group.

[4] abbreviates: compound 1 alone, s.c. single dose 4 h post infection, murine lungs.
Setting [5] is: compound 1 alone, s.c., murine lungs.
Setting [6] is: compound 1 alone, s.c., murine lungs, sigmoidal dose-response model (variable slope).
The mark [7] stands for this setting: in presence of 50 mg/kg azithromycin, murine lungs.

One may read the ED50 as the dose at which the effect has come halfway, by size or by number of responders. “cyclo(TWI[Dab][Orn][dDab][Dab]W[Dab][Dab]AS[dP]P) [compound 1]”: the “mean CFU level compared to the vehicle group” value in experiment [1] (10 mg/kg treatment group) is recorded as “reduction of the mean CFU level”; in experiment [1] (20 mg/kg treatment group), “significant reduction”. Besides, the Top level in experiment [1] (setting [4]) is 1.59 log10 CFU/ml; in experiment [2] (compound 1 s.c. in presence of 50 mg/kg azithromycin (s.c., 3 h post infection), murine lungs), −0.10 log10 CFU/ml; in experiment [3] (setting [4]) it was −3.60 log10 CFU/ml. Also, the Bottom level in experiment [1] (setting [5]) is −0.80 log10 CFU/ml; in experiment [2] (setting [7]), −2.59 log10 CFU/ml; in experiment [3] (setting [5]) it was −2.48 log10 CFU/ml. The Emax is on record as −2.4 log10 CFU/ml in experiment [1] (setting [5]), 2.49 log10 CFU/ml in experiment [2] (setting [7]) and 1.12 log10 CFU/ml in experiment [3] (setting [5]). Further, the Static dose in experiment [1] (setting [5]) came out at 9.15 mg/kg; in experiment [2] (setting [7]) it was 0.63 mg/kg; in experiment [3] (setting [5]), 9.15 mg/kg. Besides, the ED50 in experiment [1] (setting [6]) was 7.35 mg/kg; in experiment [2] (in presence of fixed dose of 50 mg/kg azithromycin, murine lungs) it was 1.74 mg/kg; in experiment [3] (setting [6]), 26.6 mg/kg. For the same substance, in experiment [2] (5.5 mg/kg alone, lung, p<0.001), the “effect on bacterial loads” value is on record as “significant effect on reducing the bacterial loads”. Further, the “CFU levels compared to vehicle treatment” value is recorded as “concentration dependent significant reduction of the CFU levels” in experiment [2] (combination of compound 1 (dose series) and azithromycin 50 mg/kg, lung, p<0.01-p<0.001); “significant reduction of the CFU levels” in experiment [3] (11-20 mg/kg, lungs, p<0.01-p<0.001). Further, the “1 log killing dose” value in experiment [2] (setting [7]) was 1.2 mg/kg. In experiment [2] (setting [7]), the “2 log killing dose” value is recorded as 2.4 mg/kg.

These data come from patent US9814754B2, “Combinations with a backbone-cyclized peptide” (POLYPHOR AG, priority 2012, dated 2017).
